Reference: US9926277B2, “Pyridone compounds, pharmaceutical compositions thereof, and their therapeutic use for treating proliferative diseases” (BioTheryX, Inc., priority 2015, dated 2018)

System: MDA-MB-231 cells
Test: Viability of MDA-MB-231 cancer cells (CELLTITER, Example B5)
Type: cell-based
Conditions: Homo sapiens, 72 hours incubation, read-out: Cell Viability (%); for viability at 0.005 µM: Conc. 5 nM; for viability at 0.01 µM: Conc. 10 nM; for viability at 0.02 µM: Conc. 20 nM
Protocol: Compounds A1 and A3 to A6 were tested for their ability to reduce the viability of MDA-MB-231 cells, along with ciclopirox (CPX). MDA-MB-231 is a metastatic human breast cancer cell line. […] Seventy-two hours after incubation, cell viability was measured using CELLTITER® from Promega.

Structure (SMILES) | viability at 0.003 µM (Conc. 3 nM) [%] | viability at 0.005 µM [%] | viability at 0.01 µM [%] | viability at 0.02 µM [%]
Cc1cc(C2CCCCC2)n(O)c(=O)c1 [CPX, ciclopirox, reference compound] | 60.3 ± 2 | 43.4 ± 2.2 | 46.3 ± 11.1 | 20.9 ± 1.5
Cc1cc(C2CCCCC2)n(OS(=O)(=O)c2ccccc2)c(=O)c1 [Compound A1, 6-cyclohexyl-4-methyl-2-oxopyridin-1(2H)-yl benzenesulfonate] | – | 46.8 ± 8 | 31.1 ± 5.4 | 22.1 ± 4.9
Cc1cc(C2CCCCC2)n(OS(=O)(=O)c2ccc(C(C)C)cc2)c(=O)c1 [Compound A3, 6-Cyclohexyl-4-methyl-2-oxopyridin-1(2H)-yl 4-isopropylbenzenesulfonate] | – | 48.3 ± 4.9 | 34.4 ± 6.9 | 28.4 ± 1.3
CCCS(=O)(=O)On1c(C2CCCCC2)cc(C)cc1=O [Compound A4, 6-Cyclohexyl-4-methyl-2-oxopyridin-1(2H)-yl propane-1-sulfonate] | – | 40.5 ± 11.4 | 32.3 ± 0.6 | 29.2 ± 1.7
Cc1cc(C2CCCCC2)n(OS(=O)(=O)c2c(C(C)C)cc(C(C)C)cc2C(C)C)c(=O)c1 [Compound A5, 6-Cyclohexyl-4-methyl-2-oxopyridin-1(2H)-yl 2,4,6-triisopropylbenzenesulfonate] | – | 62.9 ± 9.6 | 50.6 ± 6.2 | 40.6 ± 7.1
Cc1cc(C2CCCCC2)n(OS(=O)(=O)c2cccs2)c(=O)c1 [Compound A6, 6-Cyclohexyl-4-methyl-2-oxopyridin-1(2H)-yl thiophene-2-sulfonate] | – | 26.7 ± 4 | 31.4 ± 8.4 | 22.1 ± 3.6
